Measurements from US9771333B2, “Quinazoline derivatives as TAM family kinase inhibitors” (SIGNALCHEM LIFESCIENCES CORP., priority 2013, dated 2017).

Columns and labels:
Format in all cases: biochemical
[1] = molecular target: T1, human Tyro3 (Homo sapiens, UniProt Q06418); assay: Kinase enzymatic activity assay (33P-radiolabeled phosphate transfer), Tyro3; settings: recombinant human Tyro3 (455-end), poly(4:1 glu:tyr) substrate, 30 minutes
T1 construct: GST (N); made in house; host or cells: Sf9 insect cells (baculovirus)
T1 sequence (Q06418 455-890 limits assumed): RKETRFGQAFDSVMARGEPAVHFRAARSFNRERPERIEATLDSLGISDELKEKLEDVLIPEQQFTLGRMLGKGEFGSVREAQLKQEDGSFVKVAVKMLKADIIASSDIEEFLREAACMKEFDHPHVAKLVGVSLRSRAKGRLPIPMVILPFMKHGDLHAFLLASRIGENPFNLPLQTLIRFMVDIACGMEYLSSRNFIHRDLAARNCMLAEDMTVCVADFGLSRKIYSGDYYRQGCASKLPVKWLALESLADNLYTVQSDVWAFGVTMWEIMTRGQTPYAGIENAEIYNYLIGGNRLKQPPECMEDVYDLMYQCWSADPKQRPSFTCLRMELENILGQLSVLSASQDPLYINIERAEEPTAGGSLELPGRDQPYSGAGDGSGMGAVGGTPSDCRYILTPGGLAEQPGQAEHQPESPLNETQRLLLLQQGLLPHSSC
From the text: (§1) The identification of compounds of the invention as Tyro3, Axl or Mer inhibitors was readily accomplished using the recombinant human Tyro3, Axl and Mer proteins and employing the ^33P-radiolabeled phosphate transfer assay for which the procedure is known to someone skilled in the art or as described in Example 9.
(§2) Recombinant human Tyro3 (455-end, the gene accession number NM_006293), human Axl (473-end, the gene accession number NM_021913) and human Mer (578-872, the gene accession number NM_006343) were independently expressed by baculovirus in Sf9 insect cells using an N-terminal GST tag. The recombinant proteins were stored at −70° C. in a medium containing 50 mM Tris-HCl, pH 7.5, 150 mM NaCl, 10 mM glutathione, 0.1 mM EDTA, 0.25 mM DTT, 0.1 mM PMSF and 25% glycerol. The recombinant proteins were aliquoted into smaller quantities after centrifugation to avoid repeated handling and multiple freeze/thaw cycles for the most favorable performance.
(§3) Kinase Assay Buffer: This buffer solution consisted of the following components: 25 mM MOPS, pH 7.2, 12.5 mM β-glycerol-phosphate, 25 mM MgCl2, 5 mM EGTA, 2 mM EDTA and DTT 0.25 mM which was added prior to use.
(§4) Kinase Dilution Buffer: Kinase Assay Buffer was diluted at a 1:4 ratio (5× dilution) with distilled water.
(§5) [^33P]-ATP assay cocktail: In a designated radioactive working area, a 250 μM [^33P]-ATP assay cocktail was prepared by the addition of the following components: 150 μL of 10 mM ATP stock solution, 100 μL [^33P]-ATP (1 mci/100 μL), and 5.75 mL of kinase assay buffer. This solution was stored in 1 mL aliquots at −20° C.
(§6) ATP stock solution (10 mM): The ATP stock solution was prepared by dissolving 55 mg of ATP in 10 mL of kinase assay buffer. It was stored in 200 μL aliquots at −20° C.
(§7) Active Kinase Stock Solution: The active recombinant kinase protein (0.1 μg/μL) was diluted with Kinase Dilution Buffer and the activity was assayed using a serial dilution method. The specific activity is expressed in nmoL/min/mg.
(§8) Substrates: poly(4:1 glu:tyr) is the substrate used for each kinase Tyro3, Axl and Mer: The peptide substrate was dissolved in water to give the final concentration of 1 mg/mL.
(§9) Test compound solution: Test compound was dissolved in DMSO to obtain a 10 mM solution. The assay solution was prepared by adding 5 μL of this solution to […] of 10% DMSO/water to obtain the final concentration of 50 μM.
(§10) The enzymatic activity of all three kinases was determined as follows. Using a 96-well plate, the wells were divided into three categories: Blank wells, […] and Test wells. In Test wells, 5 μL of the test compound solution and 5 μL of the substrate solution were added. In Control wells, 5 μL of 10% DMSO/water and 5 μL of the substrate solution were added. In Blank wells, 10 μL of 10% DMSO/water was added. To each well was added 10 μL of Active Kinase Stock Solution to make up the volume in each well to 20 μL. All test samples, controls and blanks were run in duplicate. The reaction was initiated by the addition of 5 μL of [^33P]-ATP assay cocktail, bringing the final volume up to 25 μL in every well. The mixture was incubated at room temperature for 30 minutes. The reaction was terminated by transferring 10 μL of the reaction mixture into a Millipore MultiScreen filter plate (cat. number MSPHN6B50). The filter plate was washed in a 1% phosphoric acid solution with constant gentle shaking for 15 minutes and this step was repeated once. After the plate was dried in air, scintillation fluid was added to each well and the radioactivity in each well in CPM was counted by a Microbeta TriLux. The corrected CPM in each test well was determined by subtracting the average value of Blank well values. Percentage of inhibition of the kinase enzymatic activity by the test compound was determined using the following formula: […]
(§11) The IC50 values were determined in a similar way following a serial dilution of the test compound. […]

[2] = molecular target: T2, human Axl (Homo sapiens, UniProt P30530); assay: Kinase enzymatic activity assay (33P-radiolabeled phosphate transfer), Axl; settings: recombinant human Axl (473-end), poly(4:1 glu:tyr) substrate, 30 minutes
T2 construct: GST (N); made in house; host or cells: Sf9 insect cells (baculovirus)
T2 sequence (P30530 473-894 limits assumed): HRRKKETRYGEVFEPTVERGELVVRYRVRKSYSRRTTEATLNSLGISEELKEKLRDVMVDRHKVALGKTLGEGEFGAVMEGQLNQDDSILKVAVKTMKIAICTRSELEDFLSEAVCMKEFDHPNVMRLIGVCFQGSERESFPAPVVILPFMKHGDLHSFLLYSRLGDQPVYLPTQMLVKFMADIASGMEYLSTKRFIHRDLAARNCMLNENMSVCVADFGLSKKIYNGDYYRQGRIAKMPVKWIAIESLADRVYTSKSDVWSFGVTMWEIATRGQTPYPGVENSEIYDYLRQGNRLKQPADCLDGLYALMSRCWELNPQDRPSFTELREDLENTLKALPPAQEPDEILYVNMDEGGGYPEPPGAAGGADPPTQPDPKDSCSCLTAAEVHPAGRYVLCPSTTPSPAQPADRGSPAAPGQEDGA
From the text: as §1, §2, §3, §4, §5, §6, §7, §8, §9, §10, §11

[3] = molecular target: T3, human Mer (Homo sapiens, UniProt Q12866); assay: Kinase enzymatic activity assay (33P-radiolabeled phosphate transfer), Mer; settings: recombinant human Mer (578-872), poly(4:1 glu:tyr) substrate, 30 minutes
T3 construct: GST (N); made in house; host or cells: Sf9 insect cells (baculovirus)
T3 sequence (Q12866 578-872): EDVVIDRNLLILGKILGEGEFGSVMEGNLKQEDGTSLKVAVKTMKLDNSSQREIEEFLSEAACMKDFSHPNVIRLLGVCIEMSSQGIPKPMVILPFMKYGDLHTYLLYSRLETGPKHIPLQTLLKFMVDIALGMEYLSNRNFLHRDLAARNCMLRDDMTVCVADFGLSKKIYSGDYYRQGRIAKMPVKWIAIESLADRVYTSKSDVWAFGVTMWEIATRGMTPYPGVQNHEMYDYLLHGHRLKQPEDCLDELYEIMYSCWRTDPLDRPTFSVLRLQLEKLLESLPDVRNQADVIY
From the text: as §1, §2, §3, §4, §5, §6, §7, §8, §9, §10, §11

SMILES | IC50 [1] [nM] | IC50 [2] [nM] | IC50 [3] [nM]
CC1(C)OC[C@H](COc2cc(OC3CCOCC3)c3c(Oc4ccc(F)cc4Cl)ncnc3c2)O1 [Example 2.9, (S)-4-(2-chloro-4-fluorophenoxy)-7-((2,2-dimethyl-1,3-dioxolan-4-yl)methoxy)-5-((tetrahydro-2H-pyran-4-yl)oxy)quinazoline] | 1000 to 10000 | 1000 to 10000 | 1000 to 10000
COC(=O)c1cccc(Oc2ncnc3cc(OCCN4CCN(C)CC4)cc(OC4CCOCC4)c23)c1 [Example 2.30, methyl 3-((7-(2-(4-methylpiperazin-1-yl)ethoxy)-5-((tetrahydro-2H-pyran-4-yl)oxy)quinazolin-4-yl)oxy)benzoate] | 1000 to 10000 | 1000 to 10000 | > 10000
CN1CCC(CCOc2cc(OC3CCOCC3)c3c(Nc4nc(C(F)(F)F)cs4)ncnc3c2)CC1 [Example 2.45, N-(7-(2-(1-methylpiperidin-4-yl)ethoxy)-5-((tetrahydro-2H-pyran-4-yl)oxy)quinazolin-4-yl)-4-(trifluoromethyl)thiazol-2-amine] | > 10000 | < 500 | 1000 to 10000
COCCN1CCN(c2cc(OC3CCOCC3)c3c(Oc4ccc(F)cc4Cl)ncnc3c2)CC1 [Example 2.10, 4-(2-chloro-4-fluorophenoxy)-7-(4-(2-methoxyethyl)piperazin-1-yl)-5-((tetrahydro-2H-pyran-4-yl)oxy)quinazoline] | < 500 | 1000 to 10000 | 500 to 1000
Fc1ccc(Oc2ncnc3cc(OCCCN4CCOCC4)cc(OC4CCOCC4)c23)c(Cl)c1 [Example 2.5, 4-(3-((4-(2-chloro-4-fluorophenoxy)-5-((tetrahydro-2H-pyran-4-yl)oxy)quinazolin-7-yl)oxy)propyl)morpholine] | < 500 | 500 to 1000 | < 500
CN1CCC(CCOc2cc(OC3CCOCC3)c3c(Oc4ccc(F)cc4Cl)ncnc3c2)CC1 [Example 2, 4-(2-chloro-4-fluorophenoxy)-7-(2-(1-methylpiperidin-4-yl)ethoxy)-5-((tetrahydro-2H-pyran-4-yl)oxy)quinazoline] | < 500 | 1000 to 10000 | < 500
CN1CCC(COc2cc(OC3CCOCC3)c3c(Nc4nnc(C(F)(F)F)s4)ncnc3c2)CC1 [Example 2.37, N-(7-((1-methylpiperidin-4-yl)methoxy)-5-((tetrahydro-2H-pyran-4-yl)oxy)quinazolin-4-yl)-5-(trifluoromethyl)-1,3,4-thiadiazol-2-amine] | > 10000 | 1000 to 10000 | > 10000
COc1cc(OCC2CCN(C)CC2)cc2ncnc(Nc3nc(C(F)(F)F)cs3)c12 [Example 2.13, N-(5-methoxy-7-((1-methylpiperidin-4-yl)methoxy)quinazolin-4-yl)-4-(trifluoromethyl)thiazol-2-amine] | > 10000 | < 500 | > 10000
CN1CCC(COc2cc(OC3CCOCC3)c3c(Oc4cccc(C(F)(F)F)c4)ncnc3c2)CC1 [Example 4.10, 7-((1-methylpiperidin-4-yl)methoxy)-5-((tetrahydro-2H-pyran-4-yl)oxy)-4-(3-(trifluoromethyl)phenoxy)quinazoline] | < 500 | 500 to 1000 | 500 to 1000
CN1CCC(COc2cc(OC3CCOCC3)c3c(Oc4ccc(F)cc4Cl)ncnc3c2)CC1 [Example 4.7, 4-(2-chloro-4-fluorophenoxy)-7-((1-methylpiperidin-4-yl)methoxy)-5-((tetrahydro-2H-pyran-4-yl)oxy)quinazoline] | < 500 | 500 to 1000 | < 500
COc1cc(OCCCN2CCOCC2)cc2ncnc(Oc3cccc(C(=O)NCc4ccccc4)c3)c12 [Example 2.28, N-benzyl-3-((5-methoxy-7-(3-morpholinopropoxy)quinazolin-4-yl)oxy)benzamide] | > 10000 | > 10000 | > 10000
COCCOc1cc(OCCN2CCN(C)CC2)cc2ncnc(Sc3ccc(Cl)cc3Cl)c12 [Example 4.4, 4-((2,4-dichlorophenyl)thio)-5-(2-methoxyethoxy)-7-(2-(4-methylpiperazin-1-yl)ethoxy)quinazoline] | 1000 to 10000 | 1000 to 10000 | > 10000
Fc1ccc(Oc2ncnc3cc(OCCN4CCCCC4)cc(OC4CCOCC4)c23)c(Cl)c1 [Example 1, 4-(2-chloro-4-fluorophenoxy)-7-(2-(piperidin-1-yl)ethoxy)-5-((tetrahydro-2H-pyran-4-yl)oxy)quinazoline] | < 500 | 1000 to 10000 | < 500
Cc1nnc(Nc2ncnc3cc(OCC4CCN(C)CC4)cc(OC4CCOCC4)c23)s1 [Example 2.36, 5-methyl-N-(7-((1-methylpiperidin-4-yl)methoxy)-5-((tetrahydro-2H-pyran-4-yl)oxy)quinazolin-4-yl)-1,3,4-thiadiazol-2-amine] | > 10000 | 1000 to 10000 | 1000 to 10000
CN1CCN(c2cc(OCCCN3CCOCC3)cc3ncnc(Oc4ccc(F)cc4Cl)c23)CC1 [Example 4.9, 4-(3-((4-(2-chloro-4-fluorophenoxy)-5-(4-methylpiperazin-1-yl)quinazolin-7-yl)oxy)propyl)morpholine] | < 500 | > 10000 | 1000 to 10000
